Where two headings read alike, the source gives them in different places.
Key:
[1] = test system: Hh signaling pathway; test: NIH3T3-GRE-Luc luciferase reporter assay (primary assay); format: cell-based
Description: NIH3T3 cells (CRL-1658, ATCC) were maintained in DMEM (Gibico) supplemented with 10% FBS (Hyclone). GRE-Luc plasmid was generated by inserting 8×Gli-1 responsive element (GRE) into the multiple cloning site of pGL4.26 vector (Promega). NIH3T3-GRE-Luc reporter cell line was established by hygromycin (Invitrogen) selection after transfected with GRE-Luc luciferase reporter plasmid. Single clones were validated by the induction of luciferase by recombinant sonic hedgehog (sHh) protein or small molecule agonist SAG (ABIN629346). Selected clone was used to monitor the Hh signaling.
(§1) The NIH3T3-GRE-Luc cells were maintained in complete culture medium (DMEM with 4 mM L-Gln, 1.5 g/L sodium bicarbonate and 4.5 g/L glucose supplemented with 100 μg/mL hygromycin and 10% FBS). When confluent, the cells were trypsinized and re-suspended in assay medium (0.5% serum-containing DMEM). After 100 µL/well of cells suspension was added to the 96-well-plate (Final cell concentration is 15,000 cells/well), cells were cultured for additional 48 hours before adding the compounds.
Compounds were serially diluted in DMSO and further diluted with assay medium. In an embodiment, 10 nM SAG was added in assay medium as the agonist of Hh signaling. After the compounds and agonist were prepared, the medium was removed carefully. 100 μL of assay medium containing compound and agonist was added to the cell with care. Cell plates were incubated at 37° C. for additional 48 hours.
(§2) Following the 48 hours incubation, 40 μL/well of luciferase media (Brigh-Glo, Promega) was added to the cells. The plate was incubated at room temperature for 5 minutes under gentle shaking. Luminescence signal was measured with plate reader (PHERAstar FS, BMG). The potency of compounds was calculated based on the inhibition of luminescence signaling.
NIH3T3 cells (CRL-1658, ATCC) were maintained in DMEM (11965, Gibico) supplemented with 10% FBS (Hyclone). GRE-Luc plasmid was generated by cloning 8×Gli-1 responsive element (GRE) into the MCS of pGL4.26 (Promega). NIH3T3-GRE-Luc reporter cell lines were established by hygromycin (Invitrogen) selection after transfection with GRE-Luc luciferase reporter plasmid. Single clones were validated for the assay quality with N-terminal fragment of recombinant sonic hedgehog protein or small molecule agonist SAG (ABIN629346). Selected clone were used to monitor the Hh signaling.
as §1, with “ug/ml” for “μg/mL”, “resuspended” for “re-suspended”, “ul/well” for “µL/well”
Compounds were serially diluted in DMSO and further diluted with assay medium. In an embodiment, 10 nM SAG was added in assay medium as the agonist of Hh signaling. After the compounds and agonist were prepared, carefully remove medium (Aspirate the medium with pipette instead of vacuum, or else the NIH3T3 cells monolayer will be detached). 100 ul of assay medium containing compound or agonist was added to the cell with care. Cell plates were incubated at 37 degree for additional 48 hours.
as §2, with “ul/well” for “μL/well”, “min” for “minutes”, “basing” for “based”

[2] = target: T1, CYP3A4 (Homo sapiens, UniProt P08684); test: CYP liver enzyme inhibition experiment, CYP-3A4; format: in vitro ADME; conditions: human liver microsomes, pH 7.4, probe midazolam, test compound 10 μM, HLM, midazolam 1 μM, read-out: CYP-3A4 Inhibitory rate (%)
T1 construct: containing HLM (0.2 mg/mL), phosphate buffer (100 mM, pH 7.4); from tissue; host or cells: liver microsomes (HLM)
Procedure: (§3) The five major CYP isozymes and their respective probe substrates were: CYP-1A2 (phenacetin, 30 μM), CYP-2C9 (toluenesulfonylurea, 100 μM), CYP-2C19 40 μM), CYP-2D6 (dextromethorphan, 5 μM) and CYP-3A4 (midazolam, 1 μM). All probes were used close to or below their KMS concentrations. The mixture (200 μL) was incubated in a 37° C. constant temperature water bath, containing HLM (0.2 mg/mL), phosphate buffer (100 mM, pH 7.4), NADPH […], test compound (10 μM) and the respective CYP probe substrate. Before the reaction with NADPH, the mixture was pre-incubated for 10 minutes to undergo inhibitor-enzyme interaction. After a specific period of time (10 minutes for CYP-1A2, 2D6 and 3A4; 30 minutes for CYP-2C9 and 2C19), the reaction was quenched by addition to 100 μL solution of appropriate amount of cold acetonitrile. Reaction system was centrifuged and injected into the LC-MS/MS to quantify the concentration of specific metabolite formed from the substrate and the CYP enzyme. Each test compound was tested at least three times independently. […]
(§4) Before the start of the reaction with NADPH, the above mixture can be pre-incubated for about 10 minutes to allow inhibitor-enzyme interactions. […] The quenched mixture can be centrifuged, and aliquots of the mixture can then be analyzed by LC-MS/MS to quantify the concentrations of specific metabolic products for each CYP isozyme. […]

[3] = target: T2, CYP2D6 (Homo sapiens, UniProt P10635); test: CYP liver enzyme inhibition experiment, CYP-2D6; format: in vitro ADME; conditions: human liver microsomes, pH 7.4, probe dextromethorphan, test compound 10 μM, HLM, dextromethorphan 5 μM, read-out: CYP-2D6 Inhibitory rate (%)
T2 construct: containing HLM (0.2 mg/mL), phosphate buffer (100 mM, pH 7.4); from tissue; host or cells: liver microsomes (HLM)
Procedure: as §3, §4

[4] = target: T3, CYP2C19 (Homo sapiens, UniProt P33261); test: CYP liver enzyme inhibition experiment, CYP-2C19; format: in vitro ADME; conditions: human liver microsomes, pH 7.4, probe S-mephenytoin, 40 µM, test compound 10 μM, HLM, read-out: CYP-2C19 Inhibitory rate (%)
T3 construct: containing HLM (0.2 mg/mL), phosphate buffer (100 mM, pH 7.4); from tissue; host or cells: liver microsomes (HLM)
Procedure: as §3, §4

[5] = 48 h, 10 nM SAG as agonist, 48 hours, read-out: Effect IC50 (nM)(GRE reporter assay)
[6] = IC50 of vismodegib over that of the tested compound in the same assay
[7] = IC50 value of Vismodegib over that of the tested compound in the same assay
[8] = primary assay, Table 5, read-out: SMO IC50

T2 sequence (P10635 whole entry): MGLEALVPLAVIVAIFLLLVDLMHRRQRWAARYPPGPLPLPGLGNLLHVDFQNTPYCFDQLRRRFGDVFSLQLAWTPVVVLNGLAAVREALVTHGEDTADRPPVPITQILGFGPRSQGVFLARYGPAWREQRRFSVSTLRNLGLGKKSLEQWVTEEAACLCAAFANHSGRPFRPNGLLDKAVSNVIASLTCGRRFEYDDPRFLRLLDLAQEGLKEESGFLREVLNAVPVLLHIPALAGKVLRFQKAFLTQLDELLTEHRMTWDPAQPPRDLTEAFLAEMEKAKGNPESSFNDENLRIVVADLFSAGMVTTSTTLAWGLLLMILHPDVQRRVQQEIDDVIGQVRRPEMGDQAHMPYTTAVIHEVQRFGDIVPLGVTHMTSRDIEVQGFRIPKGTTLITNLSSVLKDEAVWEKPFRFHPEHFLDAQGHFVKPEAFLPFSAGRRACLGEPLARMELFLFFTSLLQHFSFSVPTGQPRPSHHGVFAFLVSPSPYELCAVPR
T3 sequence (P33261 whole entry): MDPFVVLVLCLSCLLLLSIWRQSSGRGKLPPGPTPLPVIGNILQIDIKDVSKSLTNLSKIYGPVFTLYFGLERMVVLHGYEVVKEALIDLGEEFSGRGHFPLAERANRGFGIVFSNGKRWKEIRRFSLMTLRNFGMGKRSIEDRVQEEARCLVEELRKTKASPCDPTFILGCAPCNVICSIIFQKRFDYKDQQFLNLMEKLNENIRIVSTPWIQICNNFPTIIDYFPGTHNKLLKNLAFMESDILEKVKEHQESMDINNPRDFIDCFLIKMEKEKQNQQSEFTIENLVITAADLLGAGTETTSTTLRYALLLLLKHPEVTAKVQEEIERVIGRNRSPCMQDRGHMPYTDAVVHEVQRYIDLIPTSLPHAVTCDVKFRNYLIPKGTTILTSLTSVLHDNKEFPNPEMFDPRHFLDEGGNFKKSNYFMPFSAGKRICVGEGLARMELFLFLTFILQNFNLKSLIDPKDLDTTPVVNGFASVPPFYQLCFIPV
T1 sequence (P08684 whole entry): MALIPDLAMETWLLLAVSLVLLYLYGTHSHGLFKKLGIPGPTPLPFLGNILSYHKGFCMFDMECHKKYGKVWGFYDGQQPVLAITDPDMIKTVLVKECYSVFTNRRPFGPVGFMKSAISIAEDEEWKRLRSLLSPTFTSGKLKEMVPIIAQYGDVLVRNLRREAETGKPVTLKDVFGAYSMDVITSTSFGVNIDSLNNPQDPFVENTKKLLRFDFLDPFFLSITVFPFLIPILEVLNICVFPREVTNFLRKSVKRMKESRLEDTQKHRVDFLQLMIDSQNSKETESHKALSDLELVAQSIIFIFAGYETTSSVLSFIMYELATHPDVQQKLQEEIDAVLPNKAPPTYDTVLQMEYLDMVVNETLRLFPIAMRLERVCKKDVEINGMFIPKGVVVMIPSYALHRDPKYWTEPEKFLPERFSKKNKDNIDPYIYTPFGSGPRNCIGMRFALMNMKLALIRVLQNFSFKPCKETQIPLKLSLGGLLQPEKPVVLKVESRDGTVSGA

Row | IC50 [1, 5] [nM] | IC50 [1, 8] [nM] | IC50 ([1]; read-out: IC50 (Hh pathway)) [nM] | inhibition at 10 min, 10 µM [2] [%] | inhibition at 10 min, 10 µM [3] [%] | inhibition at 30 min, 10 µM [4] [%] | SMILES | Ratio [1, 6] | Ratio [1, 7] | Hh pathway inhibitory activity compared to compound B2 of S configuration [1] | increase of inhibitory activity against Hedgehog pathway compared with A-55 [1] | increase of Hh pathway inhibitory activity compared to racemic compound B ([1]; chiral compound vs racemic compound)
1 | 2.7 | 2.7 | 2.7 | 21 ± 4 | 30 ± 1.7 | 44 ± 3.3 | Cc1cnc(-c2cc(N3CCc4nc(N5CCC(O)CC5)ncc4C3C)ncc2Cl)c(C)c1 (racemic) [B] | 5.0 | 5.0 | – | – | –
2 | 0.8 | 0.8 | 0.8 | 20 ± 5.9 | 24 ± 3.5 | 43 ± 2.6 | Cc1cnc(-c2cc(N3CCc4nc(N5CCC(O)CC5)ncc4[C@H]3C)ncc2Cl)c(C)c1 [Compound B1, (R)-1-(6-(5′-chloro-3,5-dimethyl-[2,4′-bipyridin]-2′-yl)-5-methyl-5,6,7,8-tetrahydropyrido[4,3-d]pyrimidin-2-yl)piperidin-4-ol] | 22.4 | 22.4 | more than 20 fold | about 12 folds | about 3 fold

— patent publication US10919889B2, “Chiral heterocyclic compound with hedgehog pathway antagonist activity, method and use thereof” (SUZHOU KINTOR PHARMACEUTICALS, INC., priority 2016, dated 2021)
